Where two headings read alike, the source gives them in different places.
Assays:
Assay in all cases: HotSpot kinase profiling
Type in all cases: biochemical
ERK7/MAPK15 = target: T1, ERK7/MAPK15 (Homo sapiens, UniProt Q8TD08)
T1 construct: purchased Reaction Biology Corp
T1 sequence (Q8TD08 1-544): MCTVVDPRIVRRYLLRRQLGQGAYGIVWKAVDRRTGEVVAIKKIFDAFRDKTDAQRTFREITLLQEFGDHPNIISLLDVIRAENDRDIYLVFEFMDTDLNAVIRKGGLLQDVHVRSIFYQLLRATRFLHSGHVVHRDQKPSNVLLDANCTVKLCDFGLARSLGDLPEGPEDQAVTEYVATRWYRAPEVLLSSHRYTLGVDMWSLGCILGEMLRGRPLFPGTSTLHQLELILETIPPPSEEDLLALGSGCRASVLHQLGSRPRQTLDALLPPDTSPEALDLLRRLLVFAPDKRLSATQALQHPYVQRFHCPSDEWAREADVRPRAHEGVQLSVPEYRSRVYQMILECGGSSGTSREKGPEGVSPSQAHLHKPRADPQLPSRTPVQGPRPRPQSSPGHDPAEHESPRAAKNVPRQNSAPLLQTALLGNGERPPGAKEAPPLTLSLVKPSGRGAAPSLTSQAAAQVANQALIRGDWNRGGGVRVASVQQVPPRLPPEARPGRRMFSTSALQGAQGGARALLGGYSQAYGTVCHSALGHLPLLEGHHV
How it was run: (§1)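 Percent inhibition, averaged when run more than once and referenced to a DMSO negative control, came from a radioactive filter-binding readout on P81 paper. Reactions of kinase with freshly made substrate and cofactors ran for 2 h at room temperature.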

FYN = target: T2, FYN (Homo sapiens, UniProt P06241)
T2 construct: purchased Reaction Biology Corp
T2 sequence (P06241 whole entry): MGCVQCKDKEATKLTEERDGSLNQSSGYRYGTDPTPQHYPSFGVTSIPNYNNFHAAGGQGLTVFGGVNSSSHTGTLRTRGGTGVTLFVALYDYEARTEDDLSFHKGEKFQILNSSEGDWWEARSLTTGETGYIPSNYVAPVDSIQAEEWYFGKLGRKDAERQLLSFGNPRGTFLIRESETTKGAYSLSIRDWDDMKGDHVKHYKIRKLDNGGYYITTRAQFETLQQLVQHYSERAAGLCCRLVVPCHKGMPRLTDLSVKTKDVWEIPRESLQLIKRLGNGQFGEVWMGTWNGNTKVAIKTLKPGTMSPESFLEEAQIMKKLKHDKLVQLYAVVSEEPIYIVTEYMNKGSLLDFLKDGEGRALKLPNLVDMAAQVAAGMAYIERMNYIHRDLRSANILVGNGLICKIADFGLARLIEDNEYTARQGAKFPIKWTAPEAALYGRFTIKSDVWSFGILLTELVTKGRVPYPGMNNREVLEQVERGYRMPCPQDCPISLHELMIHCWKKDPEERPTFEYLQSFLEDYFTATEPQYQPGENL
How it was run: as §1

MEKK2 = target: T3, MEKK2 (Homo sapiens, UniProt Q9Y2U5)
T3 construct: purchased Reaction Biology Corp
T3 sequence (Q9Y2U5 1-619): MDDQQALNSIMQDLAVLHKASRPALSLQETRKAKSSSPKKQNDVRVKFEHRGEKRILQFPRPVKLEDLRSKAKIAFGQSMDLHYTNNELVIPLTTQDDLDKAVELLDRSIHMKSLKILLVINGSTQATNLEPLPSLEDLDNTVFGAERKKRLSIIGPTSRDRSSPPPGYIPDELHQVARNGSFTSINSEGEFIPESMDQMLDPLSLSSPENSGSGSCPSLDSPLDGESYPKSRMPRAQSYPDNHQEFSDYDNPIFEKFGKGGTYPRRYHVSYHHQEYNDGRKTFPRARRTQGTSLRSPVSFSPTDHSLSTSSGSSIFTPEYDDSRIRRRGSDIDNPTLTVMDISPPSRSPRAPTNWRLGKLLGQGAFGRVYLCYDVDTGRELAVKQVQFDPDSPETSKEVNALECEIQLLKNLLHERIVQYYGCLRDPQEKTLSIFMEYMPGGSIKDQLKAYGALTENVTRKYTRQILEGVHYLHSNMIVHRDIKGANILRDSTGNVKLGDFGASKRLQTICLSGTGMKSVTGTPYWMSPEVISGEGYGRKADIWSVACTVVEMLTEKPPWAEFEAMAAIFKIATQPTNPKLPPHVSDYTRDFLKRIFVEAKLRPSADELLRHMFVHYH
How it was run: as §1

MRCKa/CDC42BPA = target: T4, MRCKa/CDC42BPA (Homo sapiens, UniProt Q5VT25)
T4 construct: purchased Reaction Biology Corp
T4 sequence (Q5VT25 whole entry): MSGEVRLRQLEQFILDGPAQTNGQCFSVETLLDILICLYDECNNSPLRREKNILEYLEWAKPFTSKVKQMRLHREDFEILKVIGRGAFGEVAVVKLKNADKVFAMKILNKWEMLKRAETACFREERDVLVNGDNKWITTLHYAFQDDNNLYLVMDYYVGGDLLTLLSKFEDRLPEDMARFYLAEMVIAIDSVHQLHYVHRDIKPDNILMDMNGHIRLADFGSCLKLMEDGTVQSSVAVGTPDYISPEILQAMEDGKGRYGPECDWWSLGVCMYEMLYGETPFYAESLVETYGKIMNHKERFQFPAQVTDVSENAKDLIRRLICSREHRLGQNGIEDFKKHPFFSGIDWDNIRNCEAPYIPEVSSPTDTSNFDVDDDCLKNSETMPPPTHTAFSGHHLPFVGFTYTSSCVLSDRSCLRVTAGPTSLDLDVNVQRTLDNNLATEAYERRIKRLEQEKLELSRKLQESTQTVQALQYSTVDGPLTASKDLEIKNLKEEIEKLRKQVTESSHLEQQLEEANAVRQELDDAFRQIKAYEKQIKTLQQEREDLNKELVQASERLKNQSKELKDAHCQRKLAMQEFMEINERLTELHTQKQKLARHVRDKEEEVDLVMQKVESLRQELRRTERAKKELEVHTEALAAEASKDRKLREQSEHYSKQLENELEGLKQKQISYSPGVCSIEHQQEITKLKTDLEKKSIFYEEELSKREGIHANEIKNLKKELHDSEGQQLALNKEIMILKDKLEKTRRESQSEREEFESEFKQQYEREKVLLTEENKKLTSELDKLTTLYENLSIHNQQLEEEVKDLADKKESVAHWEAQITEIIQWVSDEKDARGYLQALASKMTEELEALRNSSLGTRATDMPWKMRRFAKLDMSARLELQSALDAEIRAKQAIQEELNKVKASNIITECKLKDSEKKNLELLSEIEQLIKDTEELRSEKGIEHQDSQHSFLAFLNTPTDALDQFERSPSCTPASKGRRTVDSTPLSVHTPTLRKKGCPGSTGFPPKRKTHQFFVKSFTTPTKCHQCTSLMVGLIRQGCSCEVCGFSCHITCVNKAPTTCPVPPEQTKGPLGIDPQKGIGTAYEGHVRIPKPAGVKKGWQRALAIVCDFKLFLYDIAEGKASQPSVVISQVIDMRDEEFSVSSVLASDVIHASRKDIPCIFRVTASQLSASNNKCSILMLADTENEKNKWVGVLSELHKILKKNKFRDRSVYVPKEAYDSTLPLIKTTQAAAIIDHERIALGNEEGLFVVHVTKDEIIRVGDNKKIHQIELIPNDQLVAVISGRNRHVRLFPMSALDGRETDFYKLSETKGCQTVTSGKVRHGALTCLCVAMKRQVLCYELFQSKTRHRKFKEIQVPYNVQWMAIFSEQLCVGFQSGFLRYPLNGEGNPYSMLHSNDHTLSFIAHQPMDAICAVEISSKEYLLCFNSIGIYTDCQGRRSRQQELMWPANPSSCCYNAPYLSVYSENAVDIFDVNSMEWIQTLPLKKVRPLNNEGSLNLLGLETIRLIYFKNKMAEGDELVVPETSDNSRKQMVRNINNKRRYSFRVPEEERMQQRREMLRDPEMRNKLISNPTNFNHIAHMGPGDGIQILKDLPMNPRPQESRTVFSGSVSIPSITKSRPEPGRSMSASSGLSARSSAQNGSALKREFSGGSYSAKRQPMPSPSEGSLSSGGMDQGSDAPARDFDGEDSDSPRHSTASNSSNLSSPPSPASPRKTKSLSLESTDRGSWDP
How it was run: as §1

STK38/NDR1 = target: T5, STK38/NDR1 (Homo sapiens, UniProt Q15208)
T5 construct: purchased Reaction Biology Corp
T5 sequence (Q15208 whole entry): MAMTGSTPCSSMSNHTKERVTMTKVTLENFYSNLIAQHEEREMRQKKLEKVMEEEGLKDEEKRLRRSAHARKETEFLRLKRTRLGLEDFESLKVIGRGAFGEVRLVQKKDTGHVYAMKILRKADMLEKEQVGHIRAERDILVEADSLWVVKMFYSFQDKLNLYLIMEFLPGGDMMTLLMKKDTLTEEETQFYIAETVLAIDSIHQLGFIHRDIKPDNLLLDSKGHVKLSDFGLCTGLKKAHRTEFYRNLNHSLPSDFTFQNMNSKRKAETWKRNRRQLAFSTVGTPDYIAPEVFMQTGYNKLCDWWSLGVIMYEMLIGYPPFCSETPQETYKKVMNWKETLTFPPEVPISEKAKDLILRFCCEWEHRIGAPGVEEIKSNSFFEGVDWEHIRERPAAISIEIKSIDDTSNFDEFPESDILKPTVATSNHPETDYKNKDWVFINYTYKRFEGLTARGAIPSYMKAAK
How it was run: as §1

[1] = read-out: % Enzyme Activity (relative to DMSO controls) Run 1
[2] = read-out: % Enzyme Activity (relative to DMSO controls) Run 2

## C=CC(=O)Nc1cccc(Nc2nc(Nc3ccc(OCCOC)c(F)c3)ncc2F)c1 [Compound 2]
ERK7/MAPK15
  inhibition at 3 µM: 35.1%
ERK7/MAPK15; [1]
  remaining activity at 3 µM: 63.8%
ERK7/MAPK15; [2]
  remaining activity at 3 µM: 66%
FYN
  inhibition at 3 µM: 18.5%
FYN; [1]
  remaining activity at 3 µM: 81.1%
FYN; [2]
  remaining activity at 3 µM: 81.8%
MEKK2
  inhibition at 3 µM: -10.9%
MEKK2; [1]
  remaining activity at 3 µM: 108%
MEKK2; [2]
  remaining activity at 3 µM: 114%
MRCKa/CDC42BPA
  inhibition at 3 µM: -14.3%
MRCKa/CDC42BPA; [1]
  remaining activity at 3 µM: 114%
MRCKa/CDC42BPA; [2]
  remaining activity at 3 µM: 115%
STK38/NDR1
  inhibition at 3 µM: 6.79%
STK38/NDR1; [1]
  remaining activity at 3 µM: 92.7%
STK38/NDR1; [2]
  remaining activity at 3 µM: 93.7%

Source: US9492471B2, “Methods of treating a disease or disorder associated with Bruton'S Tyrosine Kinase” (Celgene Avilomics Research, Inc., priority 2013, dated 2016)
